Assay results published in PMC11542186, “Pin1 WW Domain Ligand Library Synthesized with an Easy Solid-Phase Phosphorylating Reagent” (Biochemistry, 2024).

Columns and labels:
[1] = target: T1, Pin1 WW domain (Pin1–HRP) (Homo sapiens, UniProt Q13526); test: ELEBA competitive binding Kd-obs determination; details: for Kd: competitive with plate-linked L1, concentration at which % Pin1-HRP bound to the plate is 50%, purified resynthesized ligands, 200 pM Pin1–HRP
T1 construct: purchased R&D Systems
T1 sequence (Q13526 whole entry, the tested form may be a part): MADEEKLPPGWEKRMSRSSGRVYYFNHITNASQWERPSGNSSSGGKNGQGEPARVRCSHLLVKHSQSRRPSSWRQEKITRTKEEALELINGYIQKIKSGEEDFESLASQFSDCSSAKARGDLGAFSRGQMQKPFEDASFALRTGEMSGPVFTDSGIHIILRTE
Method: Concentration-dependent ELEBAs were performed for ligands 1{2, d}, 1{18, l}, cis-1{2, n}, and trans-1{2, n} obtained by large-scale manual solid-phase synthesis and purification. The cis- and trans-isomers of 1{2, d} were separated by HPLC. The two diastereomers (∼ 1:1) of 1{18, l} were used as a mixture because they were inseparable in our systems. Competitive dissociation constants (Kd-obs) were measured by ELEBA (Figure 4). Kd-obs values were normalized to percentage Pin1–HRP bound to the plate-linked ligand by setting the lowest concentration of competitive ligand in solution to 100% binding.[32]Kd-obs is defined as the concentration of a ligand where the % Pin1-HRP bound to the plate is 50%.
(§1) The Pin1 WW domain ligand, Fmoc–VPRpTPVGGGK–NH2, (100 μL/well, 245 μM stock solution) was covalently attached to a 96-well plate through the ε-amino group of the Lys side chain at pH 11.0, as published.[44] Ligands were dissolved in DMSO at stock concentrations of ca. 50 mM by weight. Competitive binding with plate-linked Fmoc–VPRpTPVGGGK–NH2L1 of pSer–Pro dipeptides was measured at ca. 600 μM for primary screening. In the primary assays, all library members were screened with the crude products. 1{1-21, d} were measured as mixtures of cis- and trans-isomers. Library members synthesized from racemic reagents, such as 1{1-21, c}, 1{1-21, l}, 1{1-21, q}, 1{3, a-q} and 1{8, a-q} were measured as diastereomeric mixtures. The library members were dissolved in DMSO as stock solutions with a concentration of about 37 mM based on estimated yields. The DMSO stock solution of each compound (4 μL) was added into a solution of recombinant Pin1–HRP (R&D Systems) in a PBS buffer with 2% BSA (pH = 7.3). DMSO (4 μL) was used as a negative control. The final volume of the solution was 250 μL, the final concentration of Pin1–HRP was 200 pM, and the estimated final compound concentration was 590 μM. The resulting solution was preincubated for 30 min at ambient temperature, and was added into two wells (100 μL each, for assay in duplicate) of the ligand-linked plate. The solutions were incubated for another 1 h. The solutions were removed by inverting and shaking the plate, and the plate was washed with buffer ([…], and 0.05% Tween 20 in PBS at pH 7.3) three times. A 1:1 solution of hydrogen peroxide and 3,3,5,5′-tetramethylbenzidine (100 μL) was added into each plate well, and incubated in the dark for 20 min. A 2N H2SO4 solution (50 μL) was added to each well to quench the reaction, and the absorbance of was determined at 450 nm. The percentage of Pin1–HRP bound to the plate (% binding) was calculated by eq 1. To calculate the absorbance of a plate well in eq 1, the blank ligand-linked plate was predetermined at the same wavelength, and the absorbance of the blank well was subtracted from the absorbance of the same well containing the final solution. [drawing 2] 1
The competitive dissociation constants, Kd-obs, of cis-1{2, d}, trans-1{2, d}, 1{2,o}, and 1{18, m} were determined by ELEBA after the large-scale synthesis, HPLC purification, and quantification. The final concentrations of each compound were: 2.0, 10, 30, 50, 100, 200, 300, 500, 700, 1000, and 2000 μM. Ligands stock concentrations were 88 mM by weight, and the final concentrations for competitive dissociation constants (Kd) were 2000, 1000, 700, 500, 300, 200, 100, 50, 30, 10, and 5.0 μM. […]

[2] = target: T2, Pin1 WW domain (full-length 15N-Pin1) (Homo sapiens, UniProt Q13526); test: NMR 15N-1H HSQC chemical shift perturbation titration; type: binding; details: global two-state fit of WW domain NH CSPs; 295 K; pH 6.6; 48.6 μM Pin1; read-out: NMR CSP Kd
T2 construct: Full-length Pin1 was overexpressed and purified as described previously; made in house
T2 sequence (Q13526 whole entry, the tested form may be a part): as above
Description: The ELEBA was developed as a method for high-throughput screening, rather than as an absolute measure of binding affinity. […] Since L1 is linked to the plate, ELEBA is not to be taken as a direct measurement of binding affinity.[32] We undertook NMR measurements to determine the affinity and location of binding directly by NMR to distinguish between binding to the catalytic and WW domains of Pin1. Standard NMR backbone ^15N–^1H chemical shifts were mapped onto existing assignments of Pin1 by recording 2-D ^15N–^1H HSQC spectra of full-length ^15N-Pin1 at different ligand concentrations (Figures S2–S5). NH cross-peaks showing ligand-induced chemical shift perturbations (CSPs) identified residues affected by binding. The largest magnitude CSPs were localized to the WW domain.
Full-length Pin1 was overexpressed and purified as described previously.[47] The final NMR buffer conditions were 30 mM imidazole-D4, pH 6.6, with 30 mM NaCl, 0.03% NaN3, 5 mM DTT-d10, and 90%H2O/10%D2O. The ligand stock solutions included 2.4 and 24 mM for 1{18,l}; 2.4 and 16 mM for trans-1{2,d}; 2.4 and 12 mM for cis-1{2,d}; 2.4 mM and 12 mM for 1{2,n}. The stock concentrations were confirmed by standard 1-D ^1H NMR of the samples diluted in the buffer described above.
The NMR titration spectra were recorded at a nominal temperature of 295 K, on a Bruker Avance 700 MHz (16.4 T) spectrometer equipped with a cryogenically cooled TCI probe. Sequential resonance assignments for wild type Pin1 were from our prior publications.[34],[35],[46]−[48] Data processing and cross-peak analysis used Topspin 1.3 and 2.1 (Bruker Biospin, Inc.), and Sparky (T. D. Goddard and D. G. Kneller, SPARKY 3, University of California, San Francisco). The initial Pin1 concentration (apo-Pin1) was 48.6 μM. We recorded 2-D ^15N–^1H HSQC spectra per Mori et al.[51] after each addition of ligand to get NH binding isotherms (NH chemical shift perturbations as a function of the total ligand concentration). Each 2-D data set consisted of 128 FIDs (64 complex points), with 16 scans per FID and a recycle time of 1s. The ^1H^N spectral width was 15 ppm, centered at 4.703 ppm; the ^15N spectral width was 35.24 ppm, centered at 118 ppm. The binding-induced ^15N–^1H chemical shift perturbations (CSPs) were calculated by eq 3. [drawing 4] 3 [35]
The ΔδH and ΔδN terms are the amide ^1H and ^15N chemical shift differences relative to isolated Pin1. To estimate the ligand Kd values for WW domain binding, we globally fitted WW domain NH binding isotherms to the expression for the bound protein fraction in a standard two-state binding equilibrium, P + L ⇌ PL, as described in our previous Pin1 studies.[35] The monitored WW domain residues included K13, R14, M15, S16, G20, R21, A31, S32, Q33, W34, and E35. […]

[3] = target: T1, Pin1 WW domain (Pin1–HRP); test: ELEBA primary screening assay of the library; type: binding; details: separate plate of groups A and B (L2 control 85.0443); crude library members; DMSO = 100%; mean of N = 2
Method: (§2) The library was screened by the ELEBA we reported previously.[44] The crude products resulting from diethyl ether precipitation were used for the primary and secondary ELEBA without additional purification. The concentrations of the crude products were estimated based on quantitative yields; actual concentrations were thus lower, depending on yield and purity. The library products were dissolved in DMSO as stock solutions for assays. […] Recombinant human Pin1 conjugated to horseradish peroxidase (Pin1–HRP) was used in the binding assays.[44] Fmoc-VPRpTPVGGGK-NH2 L2 was used as the positive control and DMSO was used as the negative control on each plate. The percent of Pin1–HRP bound to the plate was calculated by normalizing the binding with DMSO to be 100%. In the primary assays (Figure S1), 14 of the best library members were identified: 1{2,d}, 1{18,f}, 1{20,f}, 1{10, l}, 1{13, l}, 1{18, l}, 1{20, l}, 1{10, n}, 1{18, n}, 1{19, n}, 1{2, n}, 1{20, n}, 1{14, o}, 1{3, o}. In the secondary assay, these ligands were measured again at 270 μM, and three hits, 1{2, d}, 1{18, l} and 1{2, n}, were chosen for further analysis (Figure 3).
as §1, with “2] 1 […]” for “2] 1”
The Fmoc-Ser(2- […]
cyanoethylphosphate)-OH product was cleaved from the resin with TFA. 1H NMR indicated the presence of the Fmoc group, implying that the substrate was successfully attached to the resin (data not shown). To develop the coupling methods, 2-(2-naphthyl)ethylamine and propionic acid were reacted with the pSer–Pro resin. The resulting propanoyl-pSer–Pro–(2-(2-naphthyl)ethyl)-amide (1H NMR below) was excluded from the library assays.
Figure S1 (following pages). Ligands (group A – O) were screening using ELEBA at ca. 266 µM.
Fmoc-VPRpTPVGGGK-NH2 L2 was used as positive control at 76-87 µM from stock solutions […]
of 4.3-4.8 mM. […]

[4] = target: T1, Pin1 WW domain (Pin1–HRP); test: ELEBA secondary binding assay; details: 270 μM; crude product; DMSO = 100%
Method: as §2
The best ligands from each group that blocked Pin1 WW domain binding of HRP-Pin1 bound to plate were reassayed at 270 μM to identify the best ligands through the same procedures above.

Pin1 catalytic domain = test system: Pin1 catalytic domain; parameters: method as in PMID 10932246; details: cited from earlier work
Pin1 WW domain = target: Pin1 WW domain; parameters: method as in PMID 10932246; details: read-out: affinity for the WW domain; cited from earlier work
full-length Pin1 = target: full-length Pin1; parameters: method as in PMID 10932246; details: read-out: affinity for full-length Pin1; cited from earlier work

| Compound | Kd [1] [µM] | Kd [2] [µM] | also measured |
| --- | --- | --- | --- |
| CC(C)(Oc1ccc(Cl)cc1)C(=O)NC(COP(=O)(O)O)C(=O)N1CCCC1C(=O)Nc1ccc2[nH]ncc2c1 (centres unmarked) [1{2, n}] | 206 ± 3 | 208 ± 6 |  |
| COc1ccc2c(c1)C(CC(=O)NC(COP(=O)(O)O)C(=O)N1CCCC1C(=O)NNC(=O)c1ccoc1)CC2=O (centres unmarked) [1{18, l}] | 130 ± 3 | 105 ± 9 |  |
| O=C(/C=C/c1c[nH]cn1)N[C@@H](COP(=O)(O)O)C(=O)N1CCC[C@H]1C(=O)N1CCOCC1 [1{20,b}] |  |  | % of Pin1-HRP bound to plate-linked ligand [3]: 76.1089%; ELEBA secondary screen, % of baseline activity [4]: ca. 140% |
| Fmoc–VPRpTPVGGGK–NH2 [Compound L1] |  |  | binding to the catalytic domain (Pin1 catalytic domain): no binding; Kd (Pin1 WW domain): 7.7 µM; Kd (full-length Pin1): 4.9 µM |

Second part, led by results:

| Kd [1] [µM] | Kd [2] [µM] | Compound | also measured |
| --- | --- | --- | --- |
| 263 ± 6 | 95 ± 6 | O=C(C=CSc1ccccc1)NC(COP(=O)(O)O)C(=O)N1CCCC1C(=O)Nc1ccc2[nH]ncc2c1 (stereo not drawn) [cis-1{2, d}] | relative potency cis vs trans isomer ([1]; ELEBA Kd-obs of cis-1{2, d} vs trans-1{2, d}): about three times as potent as trans-1{2, d} |
| 820 ± 6 | 214 ± 25 | O=C(C=CSc1ccccc1)NC(COP(=O)(O)O)C(=O)N1CCCC1C(=O)Nc1ccc2[nH]ncc2c1 (stereo not drawn) [trans-1{2, d}] |  |
